The IC50 is the midpoint of a concentration-inhibition curve. What is called melting point is the temperature of the solid-liquid transition.

Here are results for 5 molecules from PMC6099740, “Design, Synthesis and Biological Evaluation of 6,7-Disubstituted-4-phenoxyquinoline Derivatives Bearing Pyridazinone Moiety as c-Met Inhibitors” (Molecules : A Journal of Synthetic Chemistry and Natural …, 2018).

Data set [1] addresses T1, c-Met kinase (Homo sapiens, UniProt P08581). On the set-up: method as in PMID 28384549. To be noted: previous research; cited from earlier work.
For data set [2], the target named is T1, c-Met kinase. Put plainly: c-Met kinase inhibition assay (HTRF; mobility shift).
Procedure: All kinase assays were performed in 96-well plates in a 50 µL reaction volume. The kinase buffer contains 50 mM HEPES, pH 7.5, 10 mM MgCl2, 0.0015% Brij-35 and 2 mM DTT. The stop buffer contains 100 mM HEPES, pH 7.5, 0.015% Brij-35, 0.2% Coating Reagent 3 and 50 mM EDTA. Dilute the compounds to 500 µM by 100% DMSO, then transfer 10 µL of compound to a new 96-well plate as the intermediate plate, add 90 µL kinase buffer to each well. Transfer 5 µL of each well of the intermediate plate to 384-well plates. The following amounts of enzyme and substrate were used per well: kinase base buffer, FAM-labeled peptide, ATP and enzyme solution. Wells containing the substrate, enzyme, DMSO without compound were used as DMSO control. Wells containing just the substrate without enzyme were used as low control. Incubate at room temperature for 10 min. Add 10 µL peptide solution to each well. […] At last collect data on Caliper program and convert conversion values to inhibition values. Percent inhibition = (max − conversion)/(max − min) × 100. ‘max’ stands for DMSO control; ‘min’ stands for low control [20].
The next data set concerns A549, HepG2, MCF-7. Put plainly: MTT cytotoxicity assay, range over the three cancer cell lines. Type of data set: cell-based. To be noted: Homo sapiens; range over A549, HepG2 and MCF-7. As for the experimental part:
(§1) The results expressed as IC50 values were summarized in Table 1, and the values were the average of at least two independent experiments.
(§2) The cancer cell lines were cultured in minimum essential medium (MEM) supplement with 10% fetal bovine serum (FBS). Approximately 4 × 10^3 cells, suspended in MEM medium, were plated onto each well of a 96-well plate and incubated in 5% CO2 at 37 °C for 24 h. The test compounds at indicated final concentrations were added to the culture medium and the cell cultures were continued for 72 h. Fresh MTT was added to each well at a terminal concentration of 5 μg/mL and incubated with cells at 37 °C for 4 h. The formazan crystals were dissolved in 100 μL DMSO each well, and the absorbency at 492 nm (for absorbance of MTT formazan) and 630 nm (for the reference wavelength) was measured with the ELISA reader. All of the compounds were tested two times in each of the cell lines. The results expressed as inhibition rates or IC50 (half-maximal inhibitory concentration) were the averages of two determinations and calculated by using the Bacus Laboratories Incorporated Slide Scanner (Bliss) software (the Bacus Laboratories Inc. Slide Scanner (BLISS) system, Lombard, IL, USA)..
(Tetrazolium assays rely on reduction of a dye to a coloured formazan, in cell work by metabolically active cells.)

In another data set the test system is MCF-7 cells. Kind of data set: MTT cytotoxicity assay, MCF-7. In kind it is cell-based. The following applies: Homo sapiens, MCF7, 72 h. As for the experimental part:
as §1
(§3) The cancer cell lines were cultured in minimum essential medium (MEM) supplement with 10% fetal bovine serum (FBS). […] The test compounds at indicated final concentrations were added to the culture medium and the cell cultures were continued for 72 h. […] All of the compounds were tested two times in each of the cell lines. The results expressed as inhibition rates or IC50 (half-maximal inhibitory concentration) were the averages of two determinations and calculated by using the Bacus Laboratories Incorporated Slide Scanner (Bliss) software (the Bacus Laboratories Inc. Slide Scanner (BLISS) system, Lombard, IL, USA)..

The next data set has as its system A549 cells. Kind of data set: MTT cytotoxicity assay, A549. Type of data set: cell-based. To be noted: Homo sapiens, 72 h. The procedure: as §1, §3
In data set [3] the test system is HepG2 cells. Kind of data set: MTT cytotoxicity assay, HepG2. Type of data set: cell-based. The following applies: Homo sapiens, 72 h. As for the experimental part:
as §1, §2

Data set [4] has as its system HepG2 cells. Kind of data set: Acridine orange (AO) single staining, nuclear morphology. To be noted: 0.01 μM, 12 h. In kind it is cell-based, human. As for the experimental part:
Potential compound 53 was selected for validation and evaluation of inhibition of cell proliferation and induction of apoptosis in HepG2 cells. […] Moreover, from the results of the inverted fluorescence microscopy, it can be observed that the cells in the control group (Figure 3a) were full and the edge was clear, which was added without nothing.
The cancer cell lines were cultured in minimum essential medium (MEM) supplement with 10% fetal bovine serum (FBS). Approximately 2 × 10^4 cells, suspended in MEM medium, were plated onto each well of a 24-well plate and incubated in 5% CO2 at 37 °C for 24 h. Then the medium was removed, and 1 mL drug-free medium and 1mL medium with the test compound 7c at indicated final concentrations were added to each well in control group and test group respectively and the cell cultures were continued for 12 h. While the medium was removed, AO-PBS buffer was added to each well at a terminal concentration of 10 µg/mL and stained in dark for 10 min. Each well was washed with PBS buffer three times and observed under a fluorescence microscope.
Figure 3 The cell morphology of HepG2 cells of the control and test groups. (a) HepG2 cells treated without any compounds; (b) HepG2 cells were treated with 0.01 µM for 12 h; Changes of nuclear morphology were determined by AO staining.

The structures appear in SMILES notation. “Also recorded” adds a separate entry of the source.

T1 sequence (P08581 25-1390): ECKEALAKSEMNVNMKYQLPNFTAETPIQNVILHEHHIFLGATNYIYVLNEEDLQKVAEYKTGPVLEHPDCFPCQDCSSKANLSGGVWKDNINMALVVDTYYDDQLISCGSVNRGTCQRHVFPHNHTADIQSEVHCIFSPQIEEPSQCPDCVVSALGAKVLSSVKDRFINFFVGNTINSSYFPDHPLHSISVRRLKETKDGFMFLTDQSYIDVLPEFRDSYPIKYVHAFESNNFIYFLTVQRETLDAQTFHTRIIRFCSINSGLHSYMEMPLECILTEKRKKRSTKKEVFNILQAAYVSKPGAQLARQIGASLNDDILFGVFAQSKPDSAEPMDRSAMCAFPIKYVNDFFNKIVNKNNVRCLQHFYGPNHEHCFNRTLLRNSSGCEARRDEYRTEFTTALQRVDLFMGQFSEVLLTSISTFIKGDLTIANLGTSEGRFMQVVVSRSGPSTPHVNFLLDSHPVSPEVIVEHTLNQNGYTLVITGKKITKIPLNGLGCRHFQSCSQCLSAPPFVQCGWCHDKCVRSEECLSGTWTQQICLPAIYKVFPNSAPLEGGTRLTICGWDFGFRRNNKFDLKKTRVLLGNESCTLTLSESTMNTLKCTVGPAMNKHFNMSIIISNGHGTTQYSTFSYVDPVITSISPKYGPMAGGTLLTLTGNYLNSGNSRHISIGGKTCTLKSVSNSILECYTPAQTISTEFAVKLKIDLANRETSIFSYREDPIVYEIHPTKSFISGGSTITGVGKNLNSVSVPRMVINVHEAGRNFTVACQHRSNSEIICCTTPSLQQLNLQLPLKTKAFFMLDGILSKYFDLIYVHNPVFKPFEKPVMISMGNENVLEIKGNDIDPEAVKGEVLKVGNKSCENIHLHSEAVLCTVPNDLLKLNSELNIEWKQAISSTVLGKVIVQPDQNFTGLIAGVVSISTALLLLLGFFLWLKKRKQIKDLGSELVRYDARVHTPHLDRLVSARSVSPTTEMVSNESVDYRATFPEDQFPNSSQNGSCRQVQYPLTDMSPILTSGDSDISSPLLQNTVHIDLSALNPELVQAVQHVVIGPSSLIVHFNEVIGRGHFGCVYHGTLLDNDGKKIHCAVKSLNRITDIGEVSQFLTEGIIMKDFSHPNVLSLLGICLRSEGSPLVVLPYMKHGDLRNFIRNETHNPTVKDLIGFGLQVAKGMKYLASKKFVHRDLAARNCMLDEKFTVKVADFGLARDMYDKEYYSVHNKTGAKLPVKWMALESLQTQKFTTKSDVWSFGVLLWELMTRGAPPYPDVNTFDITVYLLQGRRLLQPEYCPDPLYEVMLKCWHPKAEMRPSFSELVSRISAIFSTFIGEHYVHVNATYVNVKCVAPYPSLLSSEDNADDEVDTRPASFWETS

With `Cc1cc(=O)n(-c2ccc(F)cc2)nc1C(=O)Nc1ccc(Oc2ccnc3[nH]ccc23)c(F)c1` [Compound 7], the “enzyme activity IC50 values” on c-Met kinase [1] is listed as “in the nanomole level”.
On to `COc1cc2c(Oc3ccc(NC(=O)c4nn(-c5ccc(F)c(Cl)c5)ccc4=O)cc3F)ccnc2cc1OCCCN1CCC(C)CC1` [Compound 42, 1-(3-Chloro-4-fluorophenyl)-N-(3-fluoro-4-((6-methoxy-7-(3-(4-methylpiperidin-1-yl)propoxy)quinolin-4-yl)oxy)phenyl)-4-oxo-1,4-dihydropyridazine-3-carboxamide], for which the melting point is 112.5 to 113.7 °C. For the same molecule, the 50% inhibitory concentration (IC50) on c-Met kinase [2] was 1.2 nM. In addition, the IC50 in the data set on A549, HepG2, MCF-7 lay within 2 to 1030 nM. In addition, the half-maximal inhibitory concentration (IC50) with MCF-7 cells amounted to 7 ± 1 nM. Moreover, the half-inhibitory concentration (IC50) with A549 cells stood at 5 ± 1 nM. This molecule registered a 50% inhibitory concentration (IC50) in the data set on HepG2 cells [3] of 1030 ± 10 nM.
Take `COc1cc2c(Oc3ccc(NC(=O)c4nn(-c5ccc(Br)cc5F)ccc4=O)cc3F)ccnc2cc1OCCCN1CCC(C)CC1` [Compound 43, 1-(4-Bromo-2-fluorophenyl)-N-(3-fluoro-4-((6-methoxy-7-(3-(4-methylpiperidin-1-yl)propoxy)quinolin-4-yl)oxy)phenyl)-4-oxo-1,4-dihydropyridazine-3-carboxamide]: the melting point was 115.8 to 117.3 °C. Moreover, at c-Met kinase [2], the concentration for half-maximal inhibition (IC50) came to 2 nM. The half-maximal inhibitory concentration (IC50) with A549, HepG2, MCF-7 lay within 2 to 1030 nM. The same molecule came in with a half-inhibitory concentration (IC50) with MCF-7 cells of 5 ± 1 nM. Moreover, the IC50 in the data set on A549 cells amounted to 30 ± 10 nM. Also, the IC50 with HepG2 cells [3] is 3 ± 1 nM.
On to `COc1cc2c(Oc3ccc(NC(=O)c4nn(-c5ccc(Cl)c(C(F)(F)F)c5)ccc4=O)cc3F)ccnc2cc1OCCCN1CCN(C)CC1` [Compound 52, 1-(4-Chloro-3-(trifluoromethyl)phenyl)-N-(3-fluoro-4-((6-methoxy-7-(3-(4-methylpiperazin-1-yl)propoxy)quinolin-4-yl)oxy)phenyl)-4-oxo-1,4-dihydropyridazine-3-carboxamide], for which the melting point lay in the range of 211.7 to 212.6 °C. Besides, the IC50 at c-Met kinase [2] came to 0.8 nM. For the same molecule, the IC50 in the data set on A549, HepG2, MCF-7 was in the range of 2 to 1030 nM. In the data set on MCF-7 cells, this molecule registered an IC50 of 150 ± 20 nM. For the same molecule, the midpoint of inhibition in the data set on A549 cells, the IC50, lay at 40 ± 10 nM. For the same molecule, in the data set with HepG2 cells [3], the midpoint of inhibition, the IC50, lay at 330 ± 30 nM.
As for `COc1cc2c(Oc3ccc(NC(=O)c4nn(-c5ccccc5)ccc4=O)cc3F)ccnc2cc1OCCCN1CCN(C)CC1` [Compound 53, N-(3-Fluoro-4-((6-methoxy-7-(3-(4-methylpiperazin-1-yl)propoxy)quinolin-4-yl)oxy)phenyl)-4-oxo-1-phenyl-1,4-dihydropyridazine-3-carboxamide], the IC50 was 0.6 nM at c-Met kinase [2]; 2 to 1030 nM in the data set with A549, HepG2, MCF-7; 6 ± 1 nM in the data set on MCF-7 cells; 3 ± 1 nM in the data set on A549 cells; 490 ± 30 nM in the data set with HepG2 cells [3]. Besides, the “Inhibition of proliferation and induction of apoptosis (AO staining)” value in the data set on HepG2 cells [4] is “significantly inhibited HepG2 cells proliferation and induced apoptosis; also recorded: could induce remarkable apoptosis of HepG2 cells”.
